Columns and labels:
[1] = In vitro human hepatic clearance in cellular relay format; type: in vitro ADME; conditions: cryopreserved hepatocytes in suspension (relay format); human hepatocytes relay, 5 incubations of 4 hrs, 0.5E+06 viable cells/mL
Experimental: (§1) Example C: In Vitro Human Hepatic Clearance in Cellular Relay Format
(§2) Working stocks of individual test articles were prepared at concentrations of 100 μM by diluting 10 mM stocks prepared in DMSO 100-fold (v:v) into ACN/1H2O (50/50, v:v). Human cryopreserved hepatocytes were thawed in a 37° C. water bath in <2 min., suspended in thawing media, and then centrifuged at 100×g for 10 min. Thawing media was aspirated, and pelleted hepatocytes were resuspended into incubation media at 1.5E+06 cells/mL. Cell viability was determined using an Acridine Orange/Propidium Iodine stain, and hepatocytes were further diluted with incubation media to 0.5E+06 viable cells/mL. Hepatocyte aliquots of 495 μL were added to wells of a 24-well plate, and test article incubations were initiated by the addition of 5 μL of 100 μM working stocks. Plates were incubated at 37° C. in a 5% CO2 atmosphere at 95% relative humidity on an orbital shaker at 300 rpm. Incubations were performed in duplicate. At time=0 and 4 hrs., aliquots of each incubation were extracted with 6 volumes ACN containing internal standards. After 4 hrs., hepatocytes were removed from the incubations via centrifugation, and supernatants were stored frozen until the following day at which point incubations were reinitiated by diluting thawed supernatants with freshly thawed hepatocytes in incubation media, again to a final concentration of 0.5E+06 viable cells/mL. These steps were repeated for a total of 5 incubations of 4 hrs. each covering 20 total hours of incubation. Incubational losses due to cellular uptake, nonspecific binding, and dilution at each relay step were corrected for. Supernatants of all incubation aliquots were diluted into ultrapure water prior to analysis via LC/MS/MS. In vitro intrinsic clearances (CLint) in μL/min/IE+06 cells were determined for each incubation from calculated in vitro half-lives determined using a standard log-linear regression approach. In vitro CLint values were scaled up using the following physiological scaling factors: 99E+06 cells/g human liver and 25.7 g human liver/kg body weight. Scaled intrinsic clearance values were finally introduced to the well-stirred liver model for the purpose of calculating predicted human hepatic clearance (CLhep,pred) in mL/min/kg assuming a human liver blood flow of 20.7 mL/min/kg and making no corrections for test article binding to red blood cells, plasma proteins, or components of the incubation system. S-Warfarin, Disopyramide and Diazepam were used as assay controls.

[2] = system: Human cryopreserved hepatocytes; assay: as above; type: in vitro ADME; conditions: predicted human hepatic clearance, well-stirred liver model, scaled from in vitro CLint
Experimental: as §1, §2

DLD-1 BRCA2(−/−) = assay: Cell growth inhibition assay (CellTiter-Glo cell viability, 7 days); type: cell-based; conditions: Homo sapiens, 168 h, DLD-1 BRCA2(-/-) cells
[3] = system: MDA-MB-436 (mutated BRCA1) cell lines; assay: as above; type: cell-based; conditions: Homo sapiens, 168 h, MDA-MB-436 cells
DLD-1 parental = assay: as above; type: cell-based; conditions: Homo sapiens, 168 h, DLD-1 parental cells
Description: Example A: Cell Growth Inhibition Assay
The objective of this study is to evaluate the effect of invention compounds on cell proliferation through the cell viability assay in DLD-1 BRCA2(−/−) and parental isogenic pair and MDA-MB-436 (mutated BRCA1) cell lines. The CellTiter-Glo (CTG) based cell viability assay is designed to determine the number of viable cells in the culture because of compound effect, by quantifying ATP, which indicates the presence of metabolically active cells.
DLD-1 BRCA2(−/−) and parental isogenic pair were cultured in RPMI 1640 supplemented with 10% fetal bovine serum (FBS), and MDA-MB-436 cells were cultured in DMEM supplemented with 10% FBS. Both are culture at 37° C. with 5% CO2. Invention compounds were distributed to the 384 well plate (Corning, 3764) using Echo acoustic liquid handler to form a 1:3 serially diluted final concentration with top dose of 10 or 30 μM. The cells were seeded into the plate in the density of 50 cells/well (DLD-1 parental), 200 cells/well (DLD-1 BRCA2−/−), or 500 cells/well (MDA-MB-436). After a short spun, the cells were cultured in a well moisturized incubator at 37° C. with 5% CO2 for 7 days without disturbance. The cell viability was measured by CellTiter Glo 2.0 assay kit (Promega, G9243), and growth inhibition rate was calculated and plotted against final compound concentration, and the data were fitted in Xfit to generate IC50.

Row | Clhep,pred [2] [mL/min/kg] | EC50 (DLD-1 BRCA2(−/−)) [µM] | EC50 [3] [µM] | SMILES | half-life at 1 µM [1] [h] | EC50 (DLD-1 parental) [µM]
1 | 1.69 | – | – | CCc1cc2ncc(CN3CCN(c4ccc(C(=O)NC)nc4)CC3)cc2[nH]c1=O [AZD5305] | 31.8 | –
2 | 1.67 | 0.0014 | 0.00063 | CCc1cc2ncc(CN3CCN(c4ccc(C(=O)NC)nc4C#N)CC3)cc2[nH]c1=O [Example 1, 6-cyano-5-{4-[(7-ethyl-6-oxo-5H-1,5-naphthyridin-3-yl)methyl]piperazin-1-yl}-N-methylpyridine-2-carboxamide] | 32.5 | 5000
3 | 1.71 | 0.0048 | 0.004 | CCc1cc2ncc(CN3CCN(c4ccc(C(=O)NC)nc4)[C@H](C)C3)cc2[nH]c1=O [Example 2, 5-[(2R)-4-[(7-ethyl-6-oxo-5H-1,5-naphthyridin-3-yl)methyl]-2-methylpiperazin-1-yl]-N-methylpyridine-2-carboxamide] | 31.5 | > 30
4 | 0.53 | 0.0025 | 0.0014 | CCc1cc2ncc(CN3CCN(c4cnc(C(=O)NC)c(F)c4)CC3)cc2[nH]c1=O [Example 5, 5-(4-((7-ethyl-6-oxo-5,6-dihydro-1,5-naphthyridin-3-yl)methyl)piperazin-1-yl)-3-fluoro-N-methylpicolinamide] | 109 | 470
5 | – | 0.001 | 0.00054 | CCc1cc2ncc(CN3CCN(c4ccc(C(=O)NCC(F)F)nc4)CC3)cc2[nH]c1=O [Example 13, N-(2,2-difluoroethyl)-5-{4-[(7-ethyl-6-oxo-5H-1,5-naphthyridin-3-yl)methyl]piperazin-1-yl} pyridine-2-carboxamide] | – | > 30
6 | – | 0.001 | 0.00053 | CCc1cc2ncc(CN3CCN(c4ccc(C(=O)NC)nc4C(F)F)CC3)cc2[nH]c1=O [Example 14, 6-(difluoromethyl)-5-{4-[(7-ethyl-6-oxo-5H-1,5-naphthyridin-3-yl)methyl]piperazin-1-yl}-N-methylpyridine-2-carboxamide] | – | > 30
7 | – | 0.0042 | 0.0013 | CCc1cc2ncc(CN3CCC(c4ccc(C(=O)NC)nc4)CC3)cc2[nH]c1=O [Example 16, 5-(1-((7-ethyl-6-oxo-5,6-dihydro-1,5-naphthyridin-3-yl)methyl)piperidin-4-yl)-N-methylpicolinamide] | – | > 30
8 | – | 0.0021 | 0.0011 | CCc1cc2ncc(CN3CCN(c4ccc(C(=O)NC)cc4C#N)CC3)cc2[nH]c1=O [Example 17, 3-cyano-4-{4-[(7-ethyl-6-oxo-5H-1,5-naphthyridin-3-yl)methyl]piperazin-1-yl}-N-methylbenzamide] | – | > 30
9 | – | 0.0015 | 0.001 | CCc1cc2ncc(CN3CCN4c5ccc(C(=O)NC)nc5OC[C@H]4C3)cc2[nH]c1=O [Example 22A, (R)-3-((7-ethyl-6-oxo-5,6-dihydro-1,5-naphthyridin-3-yl)methyl)-N-methyl-1,2,3,4,4a,5-hexahydropyrazino[1,2-d]pyrido[2,3-b][1,4]oxazine-8-carboxamide] | – | > 30
10 | – | 0.0087 | 0.0042 | CCc1cc2ncc(CN3CC(Oc4ccc(C(=O)NC)nc4)C3)cc2[nH]c1=O [Example 25, 5-({1-[(7-ethyl-6-oxo-5H-1,5-naphthyridin-3-yl)methyl]azetidin-3-yl}oxy)-N-methylpyridine-2-carboxamide] | – | > 30
11 | – | 0.22 | 0.058 | CCc1cc2ncc(CN3CCN(c4cnc(C(=O)NC)s4)CC3)cc2[nH]c1=O [Example 30] | – | 40
12 | – | 0.048 | 0.015 | CNC(=O)c1ccc(N2CCN(Cc3ccc4cc(OC(F)F)c(=O)[nH]c4c3)CC2)cn1 [Example 31] | – | 56
13 | – | 0.077 | 0.015 | CCc1cc2ncc(CN3CCN(c4ccc(-n5cnnc5)cc4)CC3)cc2[nH]c1=O [Example 32] | – | > 30
14 | – | 0.0065 | 0.0031 | CNC(=O)c1ccc(N2CCN(Cc3cnc4cc(C)c(=O)[nH]c4c3)CC2)cn1 [Example 33] | – | > 30
15 | – | 0.0023 | 0.0013 | [2H]C([2H])(c1cnc2cc(CC)c(=O)[nH]c2c1)N1CCN(c2cnc(C(=O)NC)c(F)c2)CC1 [Example 35] | – | > 30
16 | <0.9 | 0.0071 | 0.0022 | CCc1cc2ncc(CN3CCN(c4ccc(C(=O)N[C@H](C)COC)nc4)CC3)cc2[nH]c1=O [Example 56] | > 62.1 | –
17 | – | 0.0041 | 0.0015 | CCc1cc2ncc(CN3CCN(c4ccc(C(=O)NC)nc4)[C@H](CF)C3)cc2[nH]c1=O [Example 68] | – | > 30
18 | – | 0.0042 | 0.0025 | CNC(=O)c1ccc(N2CCN(Cc3cnc4c(c3)[nH]c(=O)c3ccoc34)CC2)cn1 [Example 72] | – | > 30
19 | – | 0.32 | 0.0092 | CCc1cc2ncc(CN3C[C@@H]4C(c5ccc(C(=O)NC)nc5)[C@@H]4C3)cc2[nH]c1=O (stereo partly shown) [Example 146] | – | > 30

Row | SMILES | Clhep,pred [2] [mL/min/kg] | EC50 (DLD-1 BRCA2(−/−)) [µM] | EC50 [3] [µM] | half-life at 1 µM [1] [h] | EC50 (DLD-1 parental) [µM]
20 | CNC(=O)c1ccc(N2CCN(Cc3cnc4cc(C5CC5)c(=O)[nH]c4c3)CC2)cn1 [Example 15, 5-{4-[(7-cyclopropyl-6-oxo-5H-1,5-naphthyridin-3-yl)methyl]piperazin-1-yl}-N-methylpyridine-2-carboxamide] | <0.9 | 0.0018 | 0.0013 | > 62.1 | > 30
21 | O=C(NC1CC1)c1ccc(N2CCN(Cc3cnc4cc(C5CC5)c(=O)[nH]c4c3)CC2)cn1 [Example 24, N-cyclopropyl-5-{4-[(7-cyclopropyl-6-oxo-5H-1,5-naphthyridin-3-yl)methyl]piperazin-1-yl}pyridine-2-carboxamide] | <0.9 | 0.0025 | 0.0014 | > 62.1 | > 30
